Here are results for 21 compounds from patent US20070249670A1, “Glycogen Phosphorylase Inhibitor Compounds and Pharmaceutical Compositions Thereof” (SMITHKLINE BEECHAM CORPORATION, priority 2004, published 2007).

Where a name gives a salt, the structure may show the parent alone.

This assay deals with T1, human liver glycogen phosphorylase a (HLGPa) (Homo sapiens, UniProt P06737).
T1 construct: creating a full-length cDNA fused at the 5′ end to codons for methionine-glycine-alanine-histidine; 6xHis tag (leader Met-Gly-Ala-His6-Gly-Gly) (N); made in house; host or cells: E. coli (bacterial expression plasmid pTXK1007LTev)
T1 sequence (P06737 2-847 limits assumed): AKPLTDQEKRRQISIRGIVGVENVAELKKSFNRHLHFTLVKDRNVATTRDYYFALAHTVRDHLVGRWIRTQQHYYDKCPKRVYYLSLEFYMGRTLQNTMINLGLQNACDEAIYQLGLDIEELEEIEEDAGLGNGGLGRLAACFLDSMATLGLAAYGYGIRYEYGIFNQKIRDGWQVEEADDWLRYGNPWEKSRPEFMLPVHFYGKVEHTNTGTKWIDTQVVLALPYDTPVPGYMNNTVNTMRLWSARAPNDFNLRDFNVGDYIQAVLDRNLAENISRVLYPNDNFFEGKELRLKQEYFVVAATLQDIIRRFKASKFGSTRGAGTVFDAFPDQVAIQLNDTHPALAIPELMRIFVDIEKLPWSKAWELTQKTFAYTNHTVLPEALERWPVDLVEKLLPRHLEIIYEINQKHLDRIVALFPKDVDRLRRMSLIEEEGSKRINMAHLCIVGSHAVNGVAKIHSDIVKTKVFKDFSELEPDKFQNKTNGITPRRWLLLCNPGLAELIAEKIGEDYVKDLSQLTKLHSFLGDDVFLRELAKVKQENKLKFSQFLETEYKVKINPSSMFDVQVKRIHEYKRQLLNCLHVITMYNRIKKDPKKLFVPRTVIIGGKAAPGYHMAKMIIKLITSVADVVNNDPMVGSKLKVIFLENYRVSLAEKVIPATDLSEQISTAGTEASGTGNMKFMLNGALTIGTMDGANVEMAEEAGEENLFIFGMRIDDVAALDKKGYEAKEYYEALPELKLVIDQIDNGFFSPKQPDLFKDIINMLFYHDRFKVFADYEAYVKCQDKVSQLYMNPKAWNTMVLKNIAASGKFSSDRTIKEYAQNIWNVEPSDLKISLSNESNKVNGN
The experiment in a line: Human liver glycogen phosphorylase a enzymatic activity assay (coupled, fluorescent resorufin readout, with and without 10 mM glucose). It is filed as biochemical. Conditions: human liver glycogen phosphorylase a; table does not say whether with or without 10 mM glucose.

In turn, `Cc1cc(C)c(NC(=O)Nc2cc3ccccc3cc2C(=O)N2CCN(C(=O)OC(C)(C)C)C[C@H]2C(=O)O)c(C)c1` [Example 254, (2S)-4-{[(1,1-dimethylethyl)oxy]carbonyl}-1-{[3-({[(2,4,6-trimethylphenyl)amino]carbonyl}amino)-2-naphthalenyl]carbonyl}-2-piperazinecarboxylic acid] yielded an IC50 of 0.81 µM. The figure for `O=C(Nc1cc2ccccc2cc1C(=O)N[C@H](C(=O)O)C1CCCCC1)c1ccc(-c2ccc(Cl)cc2Cl)o1` [Example 255, (2S)-cyclohexyl({[3-({[5-(2,4-dichlorophenyl)-2-furanyl]carbonyl}amino)-2-naphthalenyl]carbonyl}amino)ethanoic acid] is 2.6 µM; for `Cc1cc(C)c(NC(=O)Nc2cc3ccccc3cc2C(=O)N2CCN(S(C)(=O)=O)C[C@H]2C(=O)O)c(C)c1` [Example 256, (2S)-4-(methylsulfonyl)-1-{[3-({[(2,4,6-trimethylphenyl)amino]carbonyl}amino)-2-naphthalenyl]carbonyl}-2-piperazinecarboxylic acid] it is 17.4 µM. Under `Cc1cc(C)c(NC(=O)Nc2cc3ccccc3cc2C(=O)N2CCCC[C@H]2C(=O)O)c(C)c1` [Example 257, (2S)-1-{[3-({[(2,4,6-trimethylphenyl)amino]carbonyl}amino)-2-naphthalenyl]carbonyl}-2-piperidinecarboxylic acid] stands 18.4 µM. Under `Cc1cc(C)c(NC(=O)Nc2cc3ccccc3cc2C(=O)O)c(C)c1` [Example 263, 3-({[(2,4,6-trimethylphenyl)amino]carbonyl}amino)-2-naphthalenecarboxylic acid] stands 3.46 µM; under `Cc1cc(C)c(NC(=O)Nc2cc3ccccc3cc2C(=O)NC(CCC(C)CC(C)(C)C)C(=O)O)c(C)c1` (stereo not drawn) [Example 264, 5,7,7-trimethyl-2-({[3-({[(2,4,6-trimethylphenyl)amino]carbonyl}amino)-2-naphthalenyl]carbonyl}amino)octanoic acid], 0.12 µM; under `Cc1cc(C)c(CC(=O)Nc2cc3ccccc3cc2C(=O)N[C@H](C(=O)O)[C@@H](C)OC(C)(C)C)c(C)c1` [Example 268, O-(1,1-dimethylethyl)-N-[(3-{[(2,4,6-trimethylphenyl)acetyl]amino}-2-naphthalenyl)carbonyl]-L-threonine], 0.05 µM. As for `Cc1cc(C)c(NC(=O)Nc2cc3ccccc3cc2C(=O)N[C@@](C)(CC(C)C)C(=O)O)c(C)c1` [Example 269, 2-methyl-N-{[3-({[(2,4,6-trimethylphenyl)amino]carbonyl}amino)-2-naphthalenyl]carbonyl}leucine], half-maximal inhibition (IC50) was put at 0.21 µM. In turn, `Cc1cc(C)c(-c2ccc(C(=O)Nc3cc4ccccc4cc3C(=O)N[C@H](C(=O)O)C3CCCCC3)o2)c(C)c1` [Example 270, (2S)-cyclohexyl({[3-({[5-(2,4,6-trimethylphenyl)-2-furanyl]carbonyl}amino)-2-naphthalenyl]carbonyl}amino)ethanoic acid] showed an IC50 of 10.3 µM. The figure for `COCCOC[C@H](NC(=O)c1cc2ccccc2cc1NC(=O)Nc1c(C)cc(C)cc1C)C(=O)O` [Example 272, O-[2-(methyloxy)ethyl]-N-{[3-({[(2,4,6-trimethylphenyl)amino]carbonyl}amino)-2-naphthalenyl]carbonyl}-L-serine] is 0.038 µM; for `Cc1cc(C)c(NC(=O)Nc2cc3ccccc3cc2C(=O)N[C@@H](COC2CCOCC2)C(=O)O)c(C)c1` [Example 276, O-(tetrahydro-2H-pyran-4-yl)-N-{[3-({[(2,4,6-trimethylphenyl)amino]carbonyl}amino)-2-naphthalenyl]carbonyl}-L-serine] it is 0.045 µM; for `O=C(Nc1cc2ccccc2cc1C(=O)NC1(C(=O)O)CCCC1)Nc1c(Cl)cc(Cl)cc1Cl` [Example 279, 1-({[3-({[(2,4,6-Trichlorophenyl)amino]carbonyl}amino)-2-naphthalenyl]carbonyl}amino)cyclopentanecarboxylic acid] it is 3 µM. Under `O=C(Nc1cc2ccccc2cc1C(=O)NC1(C(=O)O)CCCCC1)Nc1c(Cl)cc(Cl)cc1Cl` [Example 281, 1-({[3-({[(2,4,6-trichlorophenyl)amino]carbonyl}amino)-2-naphthalenyl]carbonyl}amino)cyclohexanecarboxylic acid] stands 1.62 µM. Under `Cc1cc(C)c(NC(=O)Nc2cc3ccccc3cc2C(=O)NC2(C(=O)O)CCOCC2)c(C)c1` [Example 282, 4-({[3-({[(2,4,6-Trimethylphenyl)amino]carbonyl}amino)-2-naphthalenyl]carbonyl}amino)tetrahydro-2H-pyran-4-carboxylic acid] stands 1.15 µM; under `O=C(Nc1cc2ccccc2cc1C(=O)NC1(C(=O)O)CCOCC1)Nc1c(Cl)cccc1Cl` [Example 283, 4-({[3-({[(2,6-Dichlorophenyl)amino]carbonyl}amino)-2-naphthalenyl]carbonyl}amino)tetrahydro-2H-pyran-4-carboxylic acid], 7.18 µM. With `O=C(Nc1cc2ccccc2cc1C(=O)NC1(C(=O)O)CCSCC1)Nc1c(Cl)cc(Cl)cc1Cl` [Example 284, 4-({[3-({[(2,4,6-Trichlorophenyl)amino]carbonyl}amino)-2-naphthalenyl]carbonyl}amino)tetrahydro-2H-thiopyran-4-carboxylic acid], the IC50 worked out at 2.31 µM. In the case of `Cc1cc(C)c(NC(=O)Nc2cc3ccccc3cc2C(=O)NC2(C(=O)O)CCS(=O)(=O)CC2)c(C)c1` [Example 285, 4-({[3-({[(2,4,6-Trimethylphenyl)amino]carbonyl}amino)-2-naphthalenyl]carbonyl}amino)tetrahydro-2H-thiopyran-4-carboxylic acid 1,1-dioxide], the IC50 came out at 3.31 µM. The compound `O=C(Nc1cc2ccccc2cc1C(=O)NC1(C(=O)O)CCN(Cc2ccccc2)CC1)Nc1c(Cl)cccc1Cl` [Example 286, 4-({[3-({[(2,6-Dichlorophenyl)amino]carbonyl}amino)-2-naphthalenyl]carbonyl}amino)-1-(phenylmethyl)-4-piperidinecarboxylic acid] yielded an IC50 of 1.38 µM.

`Cc1cc(C)c(NC(=O)Nc2cc3ccccc3cc2C(=O)NC2(C(=O)O)CCN(C(=O)OC(C)(C)C)CC2)c(C)c1` [Example 287, 1-{[(1,1-Dimethylethyl)oxy]carbonyl}-4-({[3-({[(2,4,6-trimethylphenyl)amino]carbonyl}amino)-2-naphthalenyl]carbonyl}amino)-4-piperidinecarboxylic acid]: the IC50 worked out at 0.43 µM.

Take `Cc1cc(C)c(NC(=O)Nc2cc3ccccc3cc2C(=O)NC2(C(=O)O)CCNCC2)c(C)c1` [Example 288, 4-({[3-({[(2,4,6-trimethylphenyl)amino]carbonyl}amino)-2-naphthalenyl]carbonyl}amino)-4-piperidinecarboxylic acid trifluoroacetate]: the IC50 came to 6.17 µM. The figure for `CCCCN1CCC(NC(=O)c2cc3ccccc3cc2NC(=O)Nc2c(C)cc(C)cc2C)(C(=O)O)CC1` [Example 289, 1-Butyl-4-({[3-({[(2,4,6-trimethylphenyl)amino]carbonyl}amino)-2-naphthalenyl]carbonyl}amino)-4-piperidinecarboxylic acid] is 4.39 µM.

As a reminder, the IC50 is the concentration that gives 50% inhibition. Lower therefore signals greater potency in that assay.
